Measurements reported in article PMC7419010 (PLoS Pathogens, 2020).

Tests used:
Lsa-nAChR1 (α1α2β1β2) [1] = target: T1, Lsa-nAChR1 (α1α2β1β2) (Lepeophtheirus salmonis, UniProt A0A7S5PZ05+A0A7S5Q3W4+A0A7S5Q7H3+A0A7S5U9A3); assay type: cell-based; settings: co-applied at 10 μM, both ratios (10:1 and 1:10)
Lsa-nAChR2 (α3β1β2) [2] = target: T2, Lsa-nAChR2 (α3β1β2) (Lepeophtheirus salmonis, UniProt A0A7S5PZ03+A0A7S5PZ05+A0A7S5Q7H3); assay type: cell-based; settings: co-applied at 10 μM, both ratios (10:1 and 1:10)
[3] = tested on: six nAChR subunits (α1, α2, α3, α7, β1 and β2) and the three APs; assay: Two-electrode voltage-clamp, oocytes co-injected with all six nAChR subunits and three ancillary proteins; assay type: cell-based, Lepeophtheirus salmonis; settings: equimolar co-injection
Description: (§1) To determine the subunit composition of the functional L. salmonis nAChR channel, we tried different possible combinations of the six nAChR subunit (α1, α2, α3, α7, β1 and β2) cRNAs along with the cRNAs from the three AP, injected into X. laevis oocytes, which is one of the most commonly used systems for functional expression of nAChRs. Three to five days after injection, the presence of a functional nAChR was investigated by the two-electrode voltage-clamp method. To determine the relative contribution of each gene for the functional expression of nAChR, we removed cRNAs from the injection mixture, either singularly or in combination (Fig 2). […]
(§2) Oocytes were impaled with two electrodes filled with 3 M KCl, and their membrane potentials were maintained at -80 mV throughout the experiment. Currents evoked by ACh or drugs were recorded using an automated process equipped with standard two-electrode voltage-clamp configuration (HiClamp, MultiChannel Systems). […] Data were captured at 100 Hz, filtered at 10 Hz, and analyzed using proprietary data acquisition and analysis software running under Matlab (Mathworks Inc., Natick, MA, USA). […] Plots of the peak inward currents as a function of the logarithm of the agonist concentration yield classical concentration-activation curves were readily fitted by single Hill equations. […]

[4] = tested on: hybrid Locusta migratoria/Rattus norvegicus nAChR; parameters: method as in earlier work; settings: hybrid receptor in Xenopus oocytes; ref 25 (Bao et al.); cited from earlier work
Lsa-nAChR1 (α1α2β1β2) [5] = target: T1, Lsa-nAChR1 (α1α2β1β2); assay: cell-based; assay type: cell-based
Method: (§3) Capped cRNAs were synthesized (T7 mMessage mMachine kit, Ambion, Austin, TX, USA) from the linearized vectors containing the different subunits according to the manufacturer’s protocol. cRNA samples were stored at -80°C until use. Oocytes were ordered from Ecocyte (Germany). Oocytes were microinjected using a Roboinject automatic injection system (Multi Channel Systems, Reutlingen, Germany) with 15–25 nl of cRNA solution (30–300 ng/μl per subunit) and then incubated at 18°C in sterile filtered Barth solution containing: NaCl (88 mM), KCl (1 mM), NaHCO3 (2.4 mM), HEPES (10 mM, pH 7.5), MgSO4·7H2O (0.82 mM), Ca(NO3)2·4H2O (0.33 mM), CaCl2·6H2O (0.41 mM), at pH 7.4, and supplemented with 20 μg/ml of kanamycin, 100 U/ml benzylpenicillin and 100 μg/ml streptomycin. Recordings were made 3–5 days post-cRNA injection.
(§4) Oocytes were impaled with two electrodes filled with 3 M KCl, and their membrane potentials were maintained at -80 mV throughout the experiment. Currents evoked by ACh or drugs were recorded using an automated process equipped with standard two-electrode voltage-clamp configuration (HiClamp, MultiChannel Systems). The principle of this system differs from standard electrophysiology because, instead of applying the compound in the perfusion, the oocyte is moved into a well from a 96-well microtiter plate containing the desired solution. Data were captured at 100 Hz, filtered at 10 Hz, and analyzed using proprietary data acquisition and analysis software running under Matlab (Mathworks Inc., Natick, MA, USA). Additional analyses were performed in Excel (Microsoft, Redmond, WA, USA). […] Concentration-activation curves were fitted with the equation: Y=100/1+10^H(logEC50−X) (1) where Y is the normalized response, logEC50 is the logarithm of the concentration of agonist eliciting half-maximal current amplitude, X is the log of dose or concentration, and H is the slope factor or Hill slope. Individual curves were standardized to the initial ACh (100 μM) application amplitude and subsequently averaged. EC50 values were determined from the mean of at least 3 or more cells.
(§5) Dose-response curves were obtained by sequential applications for 10s of increasing concentrations of ACh or drugs to oocytes expressing Lsa-nAChR1 or Lsa-nAChR2. A total time of 90 s time was allowed between applications for the channel to recover from any desensitization. To test the antagonistic effect of DHbE (Fig 5) and for the screening protocol (Fig 6), cells that evoked a significant current with ACh were exposed to the test compounds at 10 μM respectively 1 μM using a pre-application of 45 s and co-application of 10 s with ACh (1 μM).

Lsa-nAChR2 (α3β1β2) [6] = target: T2, Lsa-nAChR2 (α3β1β2); assay: cell-based; assay type: cell-based
Method: as §3, §4, §5

[7] = tested on: Lsa-nAChR-α1 and Lsa-nAChR-α2 with Lsa-nAChR-β1 and APs (Lsa-nAChR-β2 removed); assay: Two-electrode voltage-clamp, oocytes with Lsa-nAChR-α1, -α2, -β1 and APs (Lsa-nAChR-β2 removed); assay type: cell-based, Lepeophtheirus salmonis; settings: Lsa-nAChR-β2 removed from injection mix
Description: as §1, §2

[8] = oocytes exposed to acetylcholine

T1 sequence (A0A7S5PZ05 entry or part of it): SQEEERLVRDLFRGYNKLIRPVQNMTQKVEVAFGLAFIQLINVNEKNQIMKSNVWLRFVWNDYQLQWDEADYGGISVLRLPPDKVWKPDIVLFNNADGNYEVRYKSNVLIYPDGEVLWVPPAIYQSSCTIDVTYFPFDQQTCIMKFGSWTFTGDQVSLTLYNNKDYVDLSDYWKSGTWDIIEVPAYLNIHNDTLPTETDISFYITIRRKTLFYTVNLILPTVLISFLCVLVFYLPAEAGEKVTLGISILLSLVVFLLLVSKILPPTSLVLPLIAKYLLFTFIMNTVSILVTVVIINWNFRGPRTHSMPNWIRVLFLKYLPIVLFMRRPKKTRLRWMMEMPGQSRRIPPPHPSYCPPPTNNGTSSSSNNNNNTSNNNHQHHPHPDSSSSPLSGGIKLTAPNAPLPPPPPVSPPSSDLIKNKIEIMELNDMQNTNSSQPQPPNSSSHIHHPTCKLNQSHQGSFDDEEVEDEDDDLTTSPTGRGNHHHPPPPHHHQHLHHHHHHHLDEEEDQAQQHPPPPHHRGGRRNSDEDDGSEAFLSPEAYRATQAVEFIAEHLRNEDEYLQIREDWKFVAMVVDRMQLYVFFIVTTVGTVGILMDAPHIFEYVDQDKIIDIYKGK
T1 sequence (A0A7S5Q3W4 entry or part of it): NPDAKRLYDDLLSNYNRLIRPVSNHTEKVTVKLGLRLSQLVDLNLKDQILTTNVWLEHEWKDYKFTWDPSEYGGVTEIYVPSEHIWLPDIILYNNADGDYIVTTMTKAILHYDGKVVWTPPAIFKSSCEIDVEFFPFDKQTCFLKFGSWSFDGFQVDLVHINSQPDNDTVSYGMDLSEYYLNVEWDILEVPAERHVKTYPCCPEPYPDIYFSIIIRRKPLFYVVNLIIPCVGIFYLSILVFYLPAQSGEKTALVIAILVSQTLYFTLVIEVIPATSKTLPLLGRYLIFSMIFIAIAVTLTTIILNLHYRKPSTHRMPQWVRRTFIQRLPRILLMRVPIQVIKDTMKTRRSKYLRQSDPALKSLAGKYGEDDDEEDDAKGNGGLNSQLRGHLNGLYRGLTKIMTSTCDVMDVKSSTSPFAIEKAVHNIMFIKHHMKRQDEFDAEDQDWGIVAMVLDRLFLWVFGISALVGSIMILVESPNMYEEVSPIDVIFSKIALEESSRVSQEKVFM
T1 sequence (A0A7S5U9A3 entry or part of it): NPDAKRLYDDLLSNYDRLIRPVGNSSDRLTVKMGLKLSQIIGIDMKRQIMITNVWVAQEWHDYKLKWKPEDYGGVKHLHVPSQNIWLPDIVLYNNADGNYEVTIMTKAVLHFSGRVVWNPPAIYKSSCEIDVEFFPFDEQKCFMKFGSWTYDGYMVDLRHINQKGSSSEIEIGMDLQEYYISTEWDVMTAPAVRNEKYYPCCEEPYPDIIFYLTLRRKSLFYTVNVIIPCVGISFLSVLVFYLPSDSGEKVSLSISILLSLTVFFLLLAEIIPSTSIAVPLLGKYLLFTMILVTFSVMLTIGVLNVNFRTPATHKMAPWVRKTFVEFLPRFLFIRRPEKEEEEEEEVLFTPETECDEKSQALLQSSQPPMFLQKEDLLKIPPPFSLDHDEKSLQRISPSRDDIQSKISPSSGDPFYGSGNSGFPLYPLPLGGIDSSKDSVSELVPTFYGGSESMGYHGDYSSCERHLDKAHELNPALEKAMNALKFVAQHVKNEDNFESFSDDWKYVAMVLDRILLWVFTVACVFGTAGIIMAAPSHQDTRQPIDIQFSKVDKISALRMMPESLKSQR
T1 sequence (A0A7S5Q7H3 entry or part of it): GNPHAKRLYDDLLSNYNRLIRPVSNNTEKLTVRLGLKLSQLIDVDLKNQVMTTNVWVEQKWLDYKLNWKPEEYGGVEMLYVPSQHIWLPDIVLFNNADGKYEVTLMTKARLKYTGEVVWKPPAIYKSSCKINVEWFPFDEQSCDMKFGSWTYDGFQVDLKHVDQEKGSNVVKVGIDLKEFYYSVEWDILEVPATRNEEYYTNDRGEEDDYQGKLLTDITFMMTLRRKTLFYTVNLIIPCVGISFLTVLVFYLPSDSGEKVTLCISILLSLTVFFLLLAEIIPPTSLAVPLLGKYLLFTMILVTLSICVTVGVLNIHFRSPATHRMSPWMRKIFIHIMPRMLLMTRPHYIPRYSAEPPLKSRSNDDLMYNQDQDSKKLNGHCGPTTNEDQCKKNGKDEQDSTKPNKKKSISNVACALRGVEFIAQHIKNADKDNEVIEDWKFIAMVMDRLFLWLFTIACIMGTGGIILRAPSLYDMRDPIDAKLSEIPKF

Row | SMILES | inhibition of the ACh-triggered (10 μM) response (Lsa-nAChR1 (α1α2β1β2) [1]) | inhibition of the ACh-triggered (10 μM) response (Lsa-nAChR2 (α3β1β2) [2]) | current (median) with 100 μM ACh [3] [μA] | maximum response to acetylcholine [4] [μA] | current (median) with 100 μM ACh (Lsa-nAChR1 (α1α2β1β2) [5]; Lsa-nAChR-α1 and -α2 with both β subunits and APs) [μA] | type of effect on the receptor (agonist / partial-agonist / no effect) (Lsa-nAChR1 (α1α2β1β2) [5]; dose-response, 1:1 (α:β) ratio) | averaged maximum response (Lsa-nAChR1 (α1α2β1β2) [5]; [8]) [μA] | Mean Hill Slope ± SD (Lsa-nAChR1 (α1α2β1β2) [5]; ratio α/β 1:10) | Mean max current (μA) (Lsa-nAChR1 (α1α2β1β2) [5]; ratio α/β 1:10) | Mean Hill Slope ± SD (Lsa-nAChR1 (α1α2β1β2) [5]; ratio α/β 10:1) | Mean max current (μA) (Lsa-nAChR1 (α1α2β1β2) [5]; ratio α/β 10:1) | Emax (Lsa-nAChR1 (α1α2β1β2) [5]; read-out: Max peak (% Ach)) [%] | type of effect on the receptor (agonist / partial-agonist / super-agonist / no effect) (Lsa-nAChR2 (α3β1β2) [6]; dose-response, 1:1 (α:β) ratio) | Max peak (% Ach) (Lsa-nAChR2 (α3β1β2) [6]; maximal peak current compared to ACh 100 μM, 1:1 (α:β) ratio) [%] | averaged maximum response (Lsa-nAChR2 (α3β1β2) [6]; [8]) [μA] | Mean Hill Slope ± SD (Lsa-nAChR2 (α3β1β2) [6]; ratio α/β 1:10) | Mean max current (μA) (Lsa-nAChR2 (α3β1β2) [6]; ratio α/β 1:10) | Mean Hill Slope ± SD (Lsa-nAChR2 (α3β1β2) [6]; ratio α/β 10:1) | Mean max current (μA) (Lsa-nAChR2 (α3β1β2) [6]; ratio α/β 10:1) | current (median) with 100 μM ACh [7] [μA]
1 | CO[C@H]1CC=C2CCN3CCC4=C(CC(=O)OC4)[C@]23C1 [DHbE, Dihydro-β-erythroidine] | completely inhibit | completely inhibit | – | – | – | – | – | – | – | – | – | – | – | – | – | – | – | – | – | –
2 | CC(=O)OCC[N+](C)(C)C [Acetylcholine] | – | – | 17.00 | 0.24 | 4.50 | agonist | > 5 | 1.44 ± 0.52 | 8.35 | 1.46 ± 0.37 | 4.85 | 100 | agonist | 100 | > 5 | 1.25 ± 0.23 | 3.17 | 1.30 ± 0.22 | 2.52 | 0.17
